Holding throughout (test): relative viability (nuclei count vs DMSO), 5 days (fraction); higher = more cells survive
Compound in experiment [1]: CCc1c2c(nc3ccc(OC(=O)N4CCC(N5CCCCC5)CC4)cc13)-c1cc3c(c(=O)n1C2)COC(=O)[C@]3(O)CC [Irinotecan] + COc1cc2c(Oc3ccc(NC(=O)C4(C(=O)Nc5ccc(F)cc5)CC4)cc3F)ccnc2cc1OCCCN1CCOCC1 [Foretinib] (partner 0.25 µM)
The method, boiled down:
(§1)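 For relative viability, nuclei counts in treated wells were divided by those in vehicle wells. Lung cancer cell lines had been pin-tool dosed in 1536-well plates the day after seeding and cultured for 5 days, then fixed and stained in one step (final 0.05% Triton X-100, 1% formaldehyde, 1 ug/ml Hoechst) and imaged at 4×. Doses were one drug alone or a fixed anchor-drug dose plus five library-drug doses (not always all listed) in √10 steps, and values are duplicate-plate medians.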

Compound in experiment [2]: CC[C@@H](C)CNCC(=O)N1CCC2=C([C@@H]1COC3=CC=CC(=C3)C)C=CS2 [RU-SKI 43] + O=C(c1cc(Cc2n[nH]c(=O)c3ccccc23)ccc1F)N1CCN(C(=O)C2CC2)CC1 [Olaparib] (partner 8 µM)
The method, boiled down:
as §1

Compound in experiment [3]: CCc1c2c(nc3ccc(OC(=O)N4CCC(N5CCCCC5)CC4)cc13)-c1cc3c(c(=O)n1C2)COC(=O)[C@]3(O)CC [Irinotecan] + CC(=O)c1c(C)c2cnc(Nc3ccc(N4CCNCC4)cn3)nc2n(C2CCCC2)c1=O [Palbociclib] (partner 0.5 µM)
An outline of the steps:
as §1

Compound in experiment [4]: Cn1cc(-c2cnc3ccc4ccc(CS(=O)(=O)NCc5ccccn5)cc4c(=O)c3c2)cn1 [MK-8033] + Nc1ncn([C@H]2C[C@H](O)[C@@H](CO)O2)c(=O)n1 [Decitabine] (partner 2 µM)
An outline of the steps:
as §1

In the case of SK-LU-1, the relative viability came to 0.623 in experiment [1] (first compound 0.6325 µM); 0.382 in experiment [1] (first compound 2 µM); 0.295 in experiment [1] (first compound 6.325 µM); 0.224 in experiment [1] (first compound 20 µM); 0.449 in experiment [2] (first compound 0.1 µM); 0.397 in experiment [2] (first compound 0.3162 µM). The relative viability was found to be 0.531 in experiment [2] (first compound 1 µM); 0.46 in experiment [2] (first compound 3.162 µM); 0.44 in experiment [2] (first compound 10 µM); 0.35 in experiment [3] (first compound 0.6325 µM); 0.354 in experiment [3] (first compound 2 µM); 0.299 in experiment [3] (first compound 6.325 µM). The relative viability in experiment [3] (first compound 20 µM) worked out at 0.336; in experiment [4] (first compound 0.02 µM), 0.545; in experiment [4] (first compound 0.06325 µM), 0.539; in experiment [4] (first compound 0.2 µM) it was 0.559; in experiment [4] (first compound 0.6325 µM), 0.638; in experiment [4] (first compound 2 µM), 0.657.
With SK-MES-1, the relative viability was determined as 0.915 in experiment [1] (first compound 0.6325 µM); 0.644 in experiment [1] (first compound 2 µM); 0.441 in experiment [1] (first compound 6.325 µM); 0.285 in experiment [1] (first compound 20 µM); 0.643 in experiment [2] (first compound 0.1 µM); 0.775 in experiment [2] (first compound 0.3162 µM). Besides, the relative viability in experiment [2] (first compound 1 µM) worked out at 0.762; in experiment [2] (first compound 3.162 µM) it was 0.737; in experiment [2] (first compound 10 µM) it was 0.702; in experiment [3] (first compound 0.6325 µM) it was 0.354; in experiment [3] (first compound 2 µM), 0.342; in experiment [3] (first compound 6.325 µM), 0.291. For the same cell line, the relative viability was 0.175 in experiment [3] (first compound 20 µM); 0.355 in experiment [4] (first compound 0.02 µM); 0.362 in experiment [4] (first compound 0.06325 µM); 0.4 in experiment [4] (first compound 0.2 µM); 0.407 in experiment [4] (first compound 0.6325 µM); 0.499 in experiment [4] (first compound 2 µM).
Take SW 900: the relative viability in experiment [1] (first compound 0.6325 µM) was found to be 0.898; in experiment [1] (first compound 2 µM) it was 0.667; in experiment [1] (first compound 6.325 µM), 0.393; in experiment [1] (first compound 20 µM), 0.448; in experiment [2] (first compound 0.1 µM) it was 0.94; in experiment [2] (first compound 0.3162 µM), 0.952. Further, the relative viability came out at 0.821 in experiment [2] (first compound 1 µM); 0.814 in experiment [2] (first compound 3.162 µM); 0.806 in experiment [2] (first compound 10 µM); 0.42 in experiment [3] (first compound 2 µM); 0.274 in experiment [3] (first compound 6.325 µM); 0.416 in experiment [3] (first compound 20 µM). In addition, the relative viability in experiment [4] (first compound 0.02 µM) is 0.483; in experiment [4] (first compound 0.06325 µM), 0.328; in experiment [4] (first compound 0.2 µM), 0.496; in experiment [4] (first compound 0.6325 µM), 0.549; in experiment [4] (first compound 2 µM), 0.41.
Regarding SW 1573, the relative viability in experiment [1] (first compound 0.6325 µM) came to 0.848; in experiment [1] (first compound 2 µM), 0.786; in experiment [1] (first compound 6.325 µM), 0.463; in experiment [1] (first compound 20 µM), 0.195; in experiment [2] (first compound 0.1 µM), 0.442; in experiment [2] (first compound 0.3162 µM) it was 0.479. For the same cell line, the relative viability in experiment [2] (first compound 1 µM) is 0.51; in experiment [2] (first compound 3.162 µM), 0.435; in experiment [2] (first compound 10 µM), 0.41; in experiment [3] (first compound 2 µM), 0.329; in experiment [3] (first compound 6.325 µM), 0.181; in experiment [3] (first compound 20 µM), 0.101. The relative viability in experiment [4] (first compound 0.02 µM) worked out at 0.528; in experiment [4] (first compound 0.06325 µM) it was 0.467; in experiment [4] (first compound 0.2 µM) it was 0.524; in experiment [4] (first compound 0.6325 µM), 0.502; in experiment [4] (first compound 2 µM), 0.474.
